Results on 2 sequences are retold here after PMC12797002, “Hydrophobic residues in the α‐synuclein NAC domain drive seed‐competent fibril formation and are targeted by peptide inhibitors” (The Febs Journal, 2025).

Data set [1] relates to recombinant αSyn. In words: Effect of inhibitor peptides on αSyn aggregation (ThT, TEM, dot blot, Coomassie gel). Type of data set: biochemical, human. On the procedure: For monitoring the effect of inhibitor peptides on αSyn aggregation, recombinant αSyn was incubated with PD, PL, PB, or scrambled peptides at a 1 : 2 molar ratio (100–150 μM αSyn:200–300 μM inhibitor) in the presence of 50 μM ThT. The incubation was performed at 37 °C with constant agitation at 850 rpm in a Turbo Thermo Shaker (TMS‐200; Allsheng, Hangzhou, China). The formation of amyloid fibrils was monitored by measuring ThT fluorescence over 72 h, as described previously.
To fractionate aggregated samples (recombinant αSyn or NAC peptides), 20% of the aggregation mixture was set aside as the ‘total fraction’. The remaining sample was centrifuged at room temperature at 65 000 g for 1 h. The supernatant was collected as the ‘soluble fraction’ and transferred to a fresh tube. The pellet was resuspended in 80 μL of 1× PBS (pH 7.2) and centrifuged at 65 000 g for 1 h. After removing the supernatant, the pellet was resuspended in 8 μL of 1× PBS (pH 7.2), yielding a 10× concentrated ‘insoluble fraction’.
Samples were dropped on glow‐discharged carbon‐coated copper grids and negatively stained with 2% uranyl acetate. Electron microscopy was performed on a Tecnai G2 F20 microscope (FEI Technologies, Hillsboro, OR, USA) with an Eagle 4K CCD camera (FEI Technologies) or a CM100 TWIN Transmission Electron Microscope (Philips, Amsterdam, Netherlands) equipped with a side‐mounted Veleta Camera (Olympus, Tokyo, Japan) and processed in the iTEM software suite (Olympus). After bringing the images to 2048 × 2048 pixels, the pixel size at the specimen level was 1.14 nm. Approximately 20 micrographs of each specimen were recorded and evaluated.
The samples were mixed with 2× Laemmli buffer [62.5 mM Tris/HCl (pH 6.8), 25% (w/v) glycerol, 2% SDS, and 0.01% Bromophenol Blue, supplemented with 5% (v/v) 2‐mercaptoethanol] and boiled at 95 °C for 5 min. The samples were then subjected to electrophoresis using Mini‐PROTEAN TGX 4–20% Precast gels (Bio‐Rad, Hercules, CA, USA, Cat. # 4561095) in Tris/glycine/SDS running buffer (Bio‐Rad). […]

Data set [2] can be described thus: Self-aggregation of inhibitor peptides alone (ThT, SEM). It counts as physicochemical. Particulars: Fig. S8. On the procedure:
NAC peptides stored at −80 °C were thawed on ice and centrifuged at 12 100 g for 45 s. A reaction mixture (40 μL) was prepared on ice containing 100 μM NAC peptide, either alone or in combination with inhibitor peptides at a 1 : 2 molar ratio, along with 15 μM ThT (Sigma‐Aldrich, Burlington, MA, USA; Cat. # T3516‐5G) in 1× PBS (pH 7.2). This mixture was then dispensed into a clear‐bottom, black 384‐well plate (Revvity, Waltham, MA, USA), and the plate was sealed with a TopSealA‐PLUS (Revvity) to prevent evaporation.
The aggregation kinetics was monitored on an EnSpire Multimode Plate Reader (Revvity) at 37 °C with a constant agitation of 1000 rpm. To prevent condensation in the assay plate, the upper heater temperature in the plate reader was set to 2 °C higher than the lower heater temperature. ThT (Ex: 460–490 nm, Em: 500–550 nm) fluorescence readings were recorded every 5–10 min for 48–72 h. The aggregation lag time was determined by fitting a Boltzmann sigmoidal equation to the fluorescence data in OriginPro 2024 (OriginLab Corporation, Northampton, MA, USA).
NAC peptides aggregated in the absence or presence of inhibitor peptides, as described in the section Aggregation Kinetics, were collected and pooled into Eppendorf tubes. Approximately 2 μL of each sample was drop‐cast onto a silicon wafer and air‐dried at room temperature. […]

For data set [3], the system named is HEK293T αSyn (A53T) CFP/YFP biosensor cells. Kind of data set: Cell seeding assay (CFP/YFP inclusions, FRET flow cytometry). It counts as cell-based. Particulars: αSyn : peptide 1 : 2 for 72 h, 1 μM total or insoluble fraction, TurboFect, n = 3. From the text: HEK293T αSyn (A53T) CFP/YFP biosensor cells (HEK293T parental line, RRID:CVCL_0063) were kindly provided by Dr. Marc Diamond from the University of Texas Southwestern Medical Center (Dallas, TX, USA). The cells were not further authenticated but were routinely tested and confirmed to be mycoplasma‐free using PCR‐based assays. The cells were maintained in complete growth media consisting of 88% Dulbecco's modified Eagle's growth medium (Lonza, Walkersville, MD, USA, Cat. # 12‐604F), supplemented with 10% (v/v) fetal bovine serum (Thermo Fisher Scientific Inc., Cat. # A5256701), 10 mM HEPES (Serana Europe GmbH, Brandenburg, Germany; Cat # BSL‐001‐100ML), 1% (v/v) GlutaMAX™ Supplement (Thermo Fisher Scientific Inc., Cat. # 35050061), and 1% (v/v) Penicillin–Streptomycin Solution (Thermo Fisher Scientific Inc., Cat. # 15140130). Cells were maintained at 37 °C in a humidified incubator with 5% CO2/atmospheric air. […]
Cells were imaged using a high‐content imaging system (Cell Voyager 7000S; Yokogawa, Tokyo, Japan) with a 20× objective. CFP/YFP inclusions of αSyn (A53T) were detected using a 488 nm laser line (Ex = 460–490 nm, Em = 500–550 nm), while Hoechst‐33 342‐stained nuclei were detected using the 405 nm laser line (Ex = 360–400 nm, Em = 410–480 nm). […]

Regarding VSRKIVRRRRR [PS], the “final ThT reading normalized to control (amyloid fibrils formed)” value in data set [1] (αSyn : peptide 1 : 2, end of aggregation assay, n = 3 (PS n = 2)) is given as “increase in αSyn aggregation”. The “αSyn fibrils by TEM” value in data set [1] (αSyn aggregated with peptide at 1 : 2) is “fibril morphology was unaffected”. In addition, in data set [2], the “self-aggregation (ThT kinetics of peptide alone)” value was “no signs of self‐aggregation”.
As to KISVRVRRRRRR [PD], the “inhibition of αSyn aggregation (ThT kinetics)” value in data set [1] (αSyn : peptide 1 : 2 molar ratio (100–150 μM : 200–300 μM), 50 μM ThT, 37 °C, 850 rpm, 72 h, n = 3) is “highly effective in inhibiting αSyn aggregation”. For the same sequence, in data set [3], the “CFP/YFP inclusions in cells transduced with αSyn fibrils formed with inhibitor” value is given as “reduced inclusions”.
